From BindingDB's records for doi:10.1016/S1074-5521(03)00159-5 (Merck Research Laboratories, 2003)

What follows are molecules tested against Mitogen-activated protein kinase 14 (Homo sapiens, UniProt Q16539) (assay: Homogeneous Time-Resolved Fluorescence (HTRF) Enzyme Assay). Conditions: pH 7; 22 °C.
Experimental: The HTRF signal is calculated as a ratio of the A-counts to B-counts. The signal produced is proportional to the amount of JNK3 or p38 kinase activity present during the kinase reaction phase.

Chain of Mitogen-activated protein kinase 14 (Q16539 whole entry): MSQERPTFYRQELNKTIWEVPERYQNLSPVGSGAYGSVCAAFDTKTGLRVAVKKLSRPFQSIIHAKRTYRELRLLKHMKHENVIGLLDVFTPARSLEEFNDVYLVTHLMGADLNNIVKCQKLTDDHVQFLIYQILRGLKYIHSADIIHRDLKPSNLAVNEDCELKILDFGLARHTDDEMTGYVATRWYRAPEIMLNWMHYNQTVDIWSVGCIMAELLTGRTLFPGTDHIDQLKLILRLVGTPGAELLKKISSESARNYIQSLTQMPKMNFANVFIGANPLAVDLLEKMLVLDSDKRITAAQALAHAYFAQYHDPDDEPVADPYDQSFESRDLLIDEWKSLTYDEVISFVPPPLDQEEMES

First: CCCn1c(C2CCNCC2)nc(-c2ccc(Cl)c(Cl)c2)c1-c1ccnc(NC2CCCCC2)n1
Second: CCCn1c(C2CCN(C)CC2)nc(-c2ccc(Cl)c(Cl)c2)c1-c1ccnc(NC2CC2)n1
The IC50 of the first is 51-fold higher: 4 nM for the first, 0.078 nM for the second. The second is the more potent here.

With Oc1ccc(-c2cnc3ccc4ccncc4c3c2)cc1 [4-(2,7-phenanthrolin-9-yl)phenol] the IC50 was greater than 40000 nM.
